Test results from US5428029A, “Vitamin D3 fluorinated analogs” (Hoffmann-La Roche Inc., priority 1993, dated 1995).
pEC50, pIC50: −log10 of the molar value. Where two headings read alike, the source gives them in different places.

Tests used:
T47-D cells = assay: Tetrazolium based MTT assay, inhibition of cell growth, T47-D; settings: Homo sapiens, T47D
Experimental: (§1) TETRAZOLIUM BASED MTT ASSAY
T47-D (breast ductal carcinoma) were grown in RPMI-1640 medium supplemented with 10 μg/ml bovine insulin and 10% fetal bovine serum (FBS).
(§2) Cells were grown in appropriate medium to late log phase (about 80% confluency). T47-D or MCF-7 cells were then trypsinized and seeded at 4,000 or 2,000 cells/well, respectively.
(§3) Tetrazolium Based MTT Assay:
(§4) At 24 hours post seeding, serial dilutions of ethanol-solubilized drugs are prepared in the same medium and added to triplicate wells at a final concentration of 1,000 to 0.1 nM and 0.1% ethanol. On days 3 to 7 post drug addition, 50 μl of a 5 mg/ml MTT solution (3-(4,5-dimethylthiazol-2-yl)-2,5-diphenyl tetrazolium bromide in phosphate-buffered saline) is added to each well and incubation is continued at 37° C. for 2.5 hours. The plates are then spun briefly by centrifugation at 800 xg for 5 minutes, medium is aspirated from wells, and 50 μl ETOH/well is added to dissolve the formazan formed during the incubation period with MTT. After a 15 minute shaking, the optical density is determined for each well in an automatic plate reader at 570 and 660 nm. Percent inhibition of cell growth is calculated by comparing optical densities of cells treated with test compounds to those of cells treated only with 0.1% ethanol. IC50 values are determined based on the Reed and Muench formula (Am. J. Hyg. 27:493-497 1938) and the results of two independent experiments are presented below: […]

MCF-7 cells = assay: Tetrazolium based MTT assay, inhibition of cell growth, MCF-7; settings: Homo sapiens, MCF7, Exp. 2
Experimental: as §1
MCF-7 (breast adenocarcinoma) were grown in MEM (Eagle) supplemented with non-essential amino acids, 1 mM sodium pyruvate, […] bovine insulin and 10% FBS
as §2, §3, §4

HL-60 tumor cell line = assay: HL-60 Differentiation Assay; format: cell-based, human; settings: 4 days; for pEC50: Homo sapiens, 96 h, HL-60 differentiation, read-out: Approximate ED50
Experimental: HL-60 Differentiation Assay:
The HL-60 tumor cell line was originally derived from a patient with promyleocytic leukemia and purchased from American Type Culture Collection (ATCC CCL240). […] For experimentation, cells were seeded at 0.9×10^6 cells per 25 cm^2 flask in medium supplemented with 0.25 mM sodium ascorbate. […] All compounds were handled in the following manner. Stock solutions were made of 10^-3 M solutions in ethanol and stored in amber vials overlaid with argon at -20° C. Stock solutions were diluted into medium at concentrations indicated. All flasks were supplemented with vehicle at a concentration of 0.1% ethanol. Control flasks were supplemented with vehicle alone at a concentration of 0.1% ethanol. Flasks were incubated upright for 4 days in 5% CO 2 at 37° C. On day 4, a 1 ml aliquot of cells was removed from the flasks, centrifuged for about 10 minutes, the media removed and the cells resuspended in a 0.2 ml of solution of nitroblue tetrazolium/phorbol 12 myristate 13-acetate (NBT/TPA) in media prepared on the day of enumeration as follows. Nitroblue tetrazolium was dissolved in media at 1 mg/ml. To this solution was added TPA to a final concentration of 100 ng/ml. This solution was kept in a covered vial on ice. The cells were suspended and incubated at 37° C. for 30 min. prior to transferring to ice. An aliquot was removed and the cells are counted using a hemocytometer. Cells without pigmented granules are judged to be undifferentiated while those containing blue black formazan (indicating conversion of NBT) granules were scored as differentiated. Results are expressed as percent differentiated cells by calculating the ratio of the number of dark cells per total number of cells counted.

sebaceous cells = assay: Inhibition of proliferation of sebaceous cells in vitro; format: cell-based; settings: Homo sapiens, read-out: ED50 (amount of compound necessary to inhibit the proliferation of the sebaceous cells by 50%)
Experimental: Sebaceous cells were isolated from adult human sebaceous glands, derived from facial skin removed during cosmetic surgery. This method is described in an article by Doran et al. in J. Invest. Dermatol. 96:341-348 (1991).
The cells were cultured in Iscove's medium containing 10% fetal calf serum and 4 μg/ml dexamethasone on a layer of growth-arrested 3T3 mouse fibroblasts.
Cells were plated in medium without the test compound and then given the compound in fresh medium 24-48 hours after the initial plating. The cultures were given fresh medium, containing the test compound, every 48 hours. On the day of harvesting, the cultures were rinsed with 0.03% ethylenediamine tetraacetic acid (EDTA) in phosphate buffered saline (PBS), to remove only the 3T3 fibroblasts. The remaining sebocyte colonies were incubated in 0.05% trypsin/0.03% EDTA to create a single cell suspension of sebocytes. The cells were diluted, mixed vigorously to maintain a single cell suspension, and counted in a hemocytometer.
All compounds were handled in the following manner. Stock solutions were made up as 10^-2 M solutions in degassed 100% ethanol and stored at -20° C. in the dark. Solutions were never used after storage of more than a month. During experimental use the solutions, which had been aliquoted, were thawed once and used by diluting directly into complete medium to the appropriate concentration. […]

[1] = test system: human neonatal keratinocytes; assay: Human Keratinocyte Antiproliferative Assay; format: cell-based; settings: for pIC50: read-out: average ED50 (Dose that would obtain 50% of the number of cells as compared to the control)
Experimental: Human Keratinocyte Antiproliferative Assay
Cultures were obtained from neonatal foreskin epithelial keratinocytes using standard procedures.
Human neonatal foreskins were collected by circumcision and placed into tubes containing Dulbecco's minimum essential Media (DMEM) with 10% serum. Upon arrival at the laboratory, they were mechanically trimmed of excess dermis, and treated with a solution of trypsin/ethylenediamine tetraacetic acid (EDTA) (0.05%/0.02%) at 4° C. overnight. The epidermis was stripped from the dermis, agitated in buffered saline to remove basal keratinocytes and the stratum corneum later removed. […] The cultures are incubated in humidified chambers with 5% CO2 at 37° C. with refeeding fresh media 2 to 3 times per week.
Antiproliferation Assay Protocol:
Approximately twenty-four hours after passage, the cells were refed with fresh KGM media supplemented to 1.5 mM CaCl2 that contains test compound or vehicle. Solutions of test compounds were prepared as follows: 1 milligram quantities were received in amber glass vials and stored at -20° C. Sufficient 100% ethanol was added directly to vials to obtain a millimolar solution that was subsequently aliquoted into small amber vials, overlayed with argon gas and stored at -20° C. Each stock solution was thawed once, used and discarded. Stock solutions were used within 4 to 6 weeks. Aliquots from the stock solution were diluted directly into medium and then serially diluted from micromolar to picomolar concentrations. […] Control wells are supplemented with vehicle alone at the highest concentration such as 0.1% ethanol. At the termination of the experiment prior to the cultures reaching confluency, the cells were enumerated by the following procedure. Dishes were washed with phosphate buffered saline, and then incubated with trypsin/EDTA solution for 30 minutes. Cells were suspended and an aliquot placed into isotonic buffered saline and counted on an electronic particle counter (Coulter Counter). The counter was periodically calibrated for the correct size of keratinocytes. Each well was counted in triplicate.

[2] = Homo sapiens, Keratinocyte, read-out: % of Control

Structure (SMILES) | pIC50 (T47-D cells; Exp. 1) | pIC50 (T47-D cells; Exp. 2) | pIC50 (MCF-7 cells) | Percent Positive Cells (HL-60 tumor cell line; Dose 0.1 nM) [%] | Percent Positive Cells (HL-60 tumor cell line; Dose 0.3 nM) [%] | Percent Positive Cells (HL-60 tumor cell line; Dose 1.0 nM) [%] | Percent Positive Cells (HL-60 tumor cell line; Dose 10.0 nM) [%] | Percent Positive Cells (HL-60 tumor cell line; Dose 100.0 nM) [%] | pEC50 (HL-60 tumor cell line) | Avg Cell No. ([1]; Dose 10 nM) | Avg Cell No. ([1]; Dose 100 nM) | Avg Cell No. ([1]; Dose 1000 nM) | also measured
C[C@H](C/C=C/C(O)(C(F)(F)F)C(F)(F)F)C1=CC[C@H]2/C(=C/C=C3C[C@@H](O)C[C@H](O)C3)CCC[C@]12C [1,25-Dihydroxy-16,23E-diene-26,27-hexafluoro-19-norcholecalciferol] | 9.59 | 8.66 | 9.82 | – | – | – | – | – | – | – | – | – | –
C=C1/C(=C\C=C2/CCC[C@]3(C)C([C@H](C)C/C=C/C(O)(C(F)(F)F)C(F)(F)F)=CC[C@@H]23)C[C@@H](O)C[C@@H]1O [1,25-Dihydroxy-16,23E-diene-26,27-hexafluorocholecalciferol] | > 10.00 | 9.05 | 10.30 | 6.0 | 30.5 | 63.0 | 79.0 | 89.5 | ~9.22 | 2.29E+05 | 2.03E+05 | 3.04E+05 | pIC50 (sebaceous cells; compared to vehicle treated control culture): > 9.00; Avg Cell No. ([1]; Dose 0.0001 nM): 4.57E+05; Avg Cell No. ([1]; Dose 0.001 nM): 4.41E+05; Avg Cell No. ([1]; Dose 0.01 nM): 5.42E+05; Avg Cell No. ([1]; Dose 0.1 nM): 5.03E+05; Avg Cell No. ([1]; Dose 1.0 nM): 2.87E+05; activity at 100 fM ([1]; Homo sapiens, Keratinocyte, Dose 0.0001 nM, read-out: % of Control): 93.7%; activity at 1 pM ([1]; Homo sapiens, Keratinocyte, Dose 0.001 nM, read-out: % of Control): 90.3%; activity at 10 pM ([1]; Homo sapiens, Keratinocyte, Dose 0.01 nM, read-out: % of Control): 111%; activity at 0.0001 µM ([1]; Homo sapiens, Keratinocyte, Dose 0.1 nM, read-out: % of Control): 103%; activity at 0.001 µM ([1]; Homo sapiens, Keratinocyte, Dose 1.0 nM, read-out: % of Control): 58.7%; activity at 0.01 µM ([1]; Homo sapiens, Keratinocyte, Dose 10 nM, read-out: % of Control): 47%; activity at 0.1 µM ([1]; Homo sapiens, Keratinocyte, Dose 100 nM, read-out: % of Control): 41.6%; activity at 1 µM ([1]; Homo sapiens, Keratinocyte, Dose 1000 nM, read-out: % of Control): 6.23%; pIC50 ([1]; Keratinocyte, human keratinocytes): 8.70
C=C1/C(=C\C=C2/CCC[C@]3(C)C([C@H](C)CC#CC(O)(C(F)(F)F)C(F)(F)F)=CC[C@@H]23)C[C@@H](O)C[C@@H]1O [1,25-dihydroxy-16-ene-23 yne-26,27-hexafluoro-cholecalciferol, reference compound] | 9.20 | 9.02 | 9.38 | – | – | – | – | – | – | – | – | – | –
C=C1/C(=C\C=C2/CCC[C@]3(C)[C@@H]([C@H](C)CCCC(C)(C)O)CC[C@@H]23)C[C@@H](O)C[C@@H]1O [1,25-dihydroxy-cholecalciferol, 1,25-dihydroxycholecalciferol, reference compound] | – | – | – | 2.0 | 5.0 | 3.5 | 26.0 | 84.0 | ~7.60 | 4.60E+05 | 3.12E+05 | 7.19E+05 | pIC50 (sebaceous cells): 7.30; Avg Cell No. ([1]; Dose 30 nM): 3.90E+05; Avg Cell No. ([1]; Dose 300 nM): 2.51E+05; activity at 0.01 µM [1, 2]: 94.3%; activity at 0.03 µM [1, 2]: 79.9%; activity at 0.1 µM [1, 2]: 64%; activity at 0.3 µM [1, 2]: 51.4%; activity at 1 µM [1, 2]: 14.7%; pIC50 ([1]; Homo sapiens, Keratinocyte): 6.52
C=C1/C(=C\C=C2/CCC[C@]3(C)C([C@H](C)C/C=C/C(O)(C(F)(F)F)C(F)(F)F)=CC[C@@H]23)C[C@@H](O)C[C@@H]1F [1α-Fluoro-25-hydroxy-16,23E-diene-26,27-hexafluorocholecalciferol] | – | – | 9.42 | – | – | – | – | – | – | – | – | – | –
